Laboratory results as given in ChEMBL document CHEMBL3774313, “Natural product-based design, synthesis and biological evaluation of Albiziabioside A derivatives that selectively induce HCT116 cell death” (Eur J Med Chem, 2016).

What was measured:
HCT-116 [1] = assay: Induction of apoptosis in human HCT116 cells assessed as necrotic cells at 4 uM after 72 hrs by Annexin V/Propidium iodide staining based flow cytometric analysis (reference value: 0.97 %); format: functional
[2] = Cell cycle arrest in human HCT116 cells assessed as accumulation at S phase at 8 uM after 72 hrs by Propidium iodide staining-based flow cytometric analysis (reference value: 37.29 %); format: functional; details: HCT-116
HCT-116 [3] = assay: Induction of apoptosis in human HCT116 cells assessed as early apoptotic cells at 2 uM after 72 hrs by Annexin V/Propidium iodide staining based flow cytometric analysis (reference value: 5.07 %); format: functional
[4] = Cytotoxicity against human HBMEC cells assessed as cell viability after 72 hrs by MTT assay; format: cell-based
HCT-116 [5] = assay: Induction of apoptosis in human HCT116 cells assessed as viable cells at 2 uM after 72 hrs by Annexin V/Propidium iodide staining based flow cytometric analysis (reference value: 92.47 %); format: functional; details: HCT-116, 72 h, read-out: Activity
[6] = Cell cycle arrest in human HCT116 cells assessed as accumulation at G1 phase at 8 uM after 72 hrs by Propidium iodide staining-based flow cytometric analysis (reference value: 57.02 %); format: functional; details: HCT-116
[7] = Cell cycle arrest in human HCT116 cells assessed as accumulation at G2 phase at 8 uM after 72 hrs by Propidium iodide staining-based flow cytometric analysis (reference value: 5.69 %); format: functional; details: HCT-116
HCT-116 [8] = assay: Induction of apoptosis in human HCT116 cells assessed as mitochondrial membrane potential at 2 uM after 72 hrs by JC-1 staining based flow cytometric analysis (reference value: 98.02 %); format: functional
A549 = assay: Antiproliferative activity against human A549 cells assessed as cell viability after 72 hrs by MTT assay; format: functional, cell-based; details: A549, 72 h
HCT-116 [9] = assay: Induction of apoptosis in human HCT116 cells assessed as late apoptotic cells at 8 uM after 72 hrs by Annexin V/Propidium iodide staining based flow cytometric analysis (reference value: 1.49 %); format: functional
HCT-116 [10] = assay: Induction of apoptosis in human HCT116 cells assessed as mitochondrial membrane potential at 8 uM after 72 hrs by JC-1 staining based flow cytometric analysis (reference value: 98.02 %); format: functional
HCT-116 [11] = assay: Induction of apoptosis in human HCT116 cells assessed as necrotic cells at 2 uM after 72 hrs by Annexin V/Propidium iodide staining based flow cytometric analysis (reference value: 0.97 %); format: functional
[12] = Cytotoxicity against human BEAS2B cells assessed as cell viability after 72 hrs by MTT assay; format: cell-based; details: BEAS-2B
[13] = Cell cycle arrest in human HCT116 cells assessed as accumulation at S phase at 2 uM after 72 hrs by Propidium iodide staining-based flow cytometric analysis (reference value: 37.29 %); format: functional; details: HCT-116
HepG2 = assay: Antiproliferative activity against human HepG2 cells assessed as cell viability after 72 hrs by MTT assay; format: functional, cell-based; details: HepG2, 72 h
[14] = Cell cycle arrest in human HCT116 cells assessed as accumulation at S phase at 4 uM after 72 hrs by Propidium iodide staining-based flow cytometric analysis (reference value: 37.29 %); format: functional; details: HCT-116
HeLa = assay: Antiproliferative activity against human HeLa cells assessed as cell viability after 72 hrs by MTT assay; format: functional, cell-based
[15] = Cell cycle arrest in human HCT116 cells assessed as accumulation at G2 phase at 4 uM after 72 hrs by Propidium iodide staining-based flow cytometric analysis (reference value: 5.69 %); format: functional; details: HCT-116
HCT-116 [16] = assay: Induction of apoptosis in human HCT116 cells assessed as mitochondrial membrane potential at 4 uM after 72 hrs by JC-1 staining based flow cytometric analysis (reference value: 98.02 %); format: functional
[17] = Antiproliferative activity against human HL60 cells assessed as cell viability after 72 hrs by MTT assay; format: functional, cell-based; details: HL-60, 72 h
HCT-116 [18] = assay: Induction of apoptosis in human HCT116 cells assessed as late apoptotic cells at 2 uM after 72 hrs by Annexin V/Propidium iodide staining based flow cytometric analysis (reference value: 1.49 %); format: functional
[19] = Cytotoxicity against human CCD-841-CoN cells assessed as cell viability after 72 hrs by MTT assay; format: cell-based
HCT-116 [20] = assay: Induction of apoptosis in human HCT116 cells assessed as necrotic cells at 8 uM after 72 hrs by Annexin V/Propidium iodide staining based flow cytometric analysis (reference value: 0.97 %); format: functional
[21] = Cell cycle arrest in human HCT116 cells assessed as accumulation at G1 phase at 2 uM after 72 hrs by Propidium iodide staining-based flow cytometric analysis (reference value: 57.02 %); format: functional; details: HCT-116
[22] = Cell cycle arrest in human HCT116 cells assessed as accumulation at G1 phase at 4 uM after 72 hrs by Propidium iodide staining-based flow cytometric analysis (reference value: 57.02 %); format: functional; details: HCT-116
[23] = Cell cycle arrest in human HCT116 cells assessed as accumulation at G2 phase at 2 uM after 72 hrs by Propidium iodide staining-based flow cytometric analysis (reference value: 5.69 %); format: functional; details: HCT-116
[24] = Antiproliferative activity against human HCT116 cells assessed as cell viability after 72 hrs by MTT assay; format: functional, cell-based; details: HCT-116, 72 h
HCT-116 [25] = assay: Induction of apoptosis in human HCT116 cells assessed as viable cells at 4 uM after 72 hrs by Annexin V/Propidium iodide staining based flow cytometric analysis (reference value: 92.47 %); format: functional; details: HCT-116, 72 h, read-out: Activity
HaCaT = assay: Cytotoxicity against human HaCaT cells assessed as cell viability after 72 hrs by MTT assay; format: cell-based
HCT-116 [26] = assay: Induction of apoptosis in human HCT116 cells assessed as early apoptotic cells at 4 uM after 72 hrs by Annexin V/Propidium iodide staining based flow cytometric analysis (reference value: 5.07 %); format: functional
HCT-116 [27] = assay: Induction of apoptosis in human HCT116 cells assessed as early apoptotic cells at 8 uM after 72 hrs by Annexin V/Propidium iodide staining based flow cytometric analysis (reference value: 5.07 %); format: functional
[28] = Cytotoxicity against human LO2 cells assessed as cell viability after 72 hrs by MTT assay; format: cell-based; details: L02, 72 h
HCT-116 [29] = assay: Induction of apoptosis in human HCT116 cells assessed as decrease in mitochondrial membrane potential after 72 hrs by JC-1 staining based flow cytometric analysis; format: functional, cell-based
MCF7 = assay: Antiproliferative activity against human MCF7 cells assessed as cell viability after 72 hrs by MTT assay; format: functional, cell-based; details: MCF7, 72 h
HCT-116 [30] = assay: Induction of apoptosis in human HCT116 cells assessed as late apoptotic cells at 4 uM after 72 hrs by Annexin V/Propidium iodide staining based flow cytometric analysis (reference value: 1.49 %); format: functional
HCT-116 [31] = assay: Induction of apoptosis in human HCT116 cells assessed as viable cells at 8 uM after 72 hrs by Annexin V/Propidium iodide staining based flow cytometric analysis (reference value: 92.47 %); format: functional; details: HCT-116, 72 h, read-out: Activity

IC50 (A549): > 50 µM
IC50 (HepG2): > 50 µM
IC50 (HeLa): > 50 µM
IC50 (MCF7): > 50 µM
Structure (SMILES): CC(C)c1ccc(/C=C/C(=O)N[C@H]2[C@H](O[C@H]3CC[C@]4(C)[C@H]5CC=C6[C@@H]7CC(C)(C)CC[C@]7(C(=O)O)CC[C@@]6(C)[C@]5(C)CC[C@H]4C3(C)C)O[C@H](CO[C@@H]3OC[C@H](O)[C@H](O)[C@H]3O)[C@@H](O)[C@@H]2O)cc1
Activity (HCT-116 [1]): 3.34%
Activity [2]: 42.8%
Activity (HCT-116 [3]): 4.51%
IC50 [4]: > 50 µM
viability at 2 µM (HCT-116 [5]): 81.6%
Activity [6]: 40.8%
Activity [7]: 16.5%
Activity (HCT-116 [8]): 86.87%
Activity (HCT-116 [9]): 27%
Activity (HCT-116 [10]): 47.79%
Activity (HCT-116 [11]): 1.67%
IC50 [12]: > 50 µM
Activity [13]: 36.4%
Activity [14]: 42.1%
Activity [15]: 11.4%
Activity (HCT-116 [16]): 73.55%
IC50 [17]: > 50 µM
Activity (HCT-116 [18]): 12.21%
IC50 [19]: > 50 µM
Activity (HCT-116 [20]): 3.9%
Activity [21]: 53.8%
Activity [22]: 46.5%
Activity [23]: 9.86%
IC50 [24]: 7.6 µM
viability at 4 µM (HCT-116 [25]): 63.3%
IC50 (HaCaT): > 50 µM
Activity (HCT-116 [26]): 5.4%
Activity (HCT-116 [27]): 40.8%
IC50 [28]: > 50 µM
Activity (HCT-116 [29]): Dose-dependent effect
Activity (HCT-116 [30]): 28%
viability at 8 µM (HCT-116 [31]): 28.3%
